The test system of assay [1] is Escherichia coli. The assay can be described thus: Compound was evaluated for antibacterial activity against Escherichia coli. The class given is functional.
A further assay relates to Staphylococcus capitis. As to the kind of experiment: Compound was evaluated for antibacterial activity against Staphylococcus capitis. The format is functional.
Assay [2] addresses Peptide deformylase (Escherichia coli) (UniProt P0A6K3). The assay can be described thus: Compound was evaluated for inhibition of peptide deformylase, PDF.Ni of Escherichia coli at concentration of 1 uM.
Assay [3] concerns Escherichia coli. As to the kind of experiment: Compound was evaluated for antibacterial activity against Escherichia coli in the range of 75-100 uM; Exerted a moderate antibacterial effect. The format is functional.

As usually defined, the MIC is the lowest concentration that inhibits growth of the organism. Read a low MIC as inhibition by little substance. The term inhibition denotes the change of the read-out against control, counted positive when it falls. High values mean a response far below the control, low ones a response near the control.

Molecules are shown by their SMILES. Converted amounts (≈) assume the structure as drawn.

Sequence of Peptide deformylase (Escherichia coli) (P0A6K3 whole entry, looked up): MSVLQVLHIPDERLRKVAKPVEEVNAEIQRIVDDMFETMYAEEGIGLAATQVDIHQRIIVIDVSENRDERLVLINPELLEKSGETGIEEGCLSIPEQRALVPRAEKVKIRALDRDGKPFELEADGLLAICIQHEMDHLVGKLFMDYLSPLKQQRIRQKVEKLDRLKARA

On to `CCCC[C@H](CC(=O)NO)C(=O)N[C@H](C(=O)N(C)C)C(C)(C)C`, for which the MIC was 25 µM (≈ 8.24 µg/mL) against Escherichia coli [1] and 100 µM (≈ 32.9 µg/mL) in the assay on Staphylococcus capitis.
Consider `CCCCC(CC(=N)NO)C(=O)N[C@H](C(=O)N(C)C)C(C)(C)C` (stereo partly specified), for which the minimum inhibitory concentration (MIC) in the assay with Escherichia coli [1] and with Staphylococcus capitis was above 200 µM in each case.
Turning to `CCCCC(C[PH](=O)O)C(=O)N[C@H](C(=O)N(C)C)C(C)(C)C` (stereo partly specified), the MIC against Escherichia coli [1] and in the assay with Staphylococcus capitis was above 200 µM throughout.
As to `CCCC[C@H](CN(O)C(N)=O)C(=O)N[C@H](C(=O)N(C)C)C(C)(C)C`, the MIC against Escherichia coli [1] and in the assay with Staphylococcus capitis was above 200 µM in each case.
On to `CCCC[C@H](NC(=O)NO)C(=O)N[C@H](C(=O)N(C)C)C(C)(C)C`, for which the MIC against Escherichia coli [1] and against Staphylococcus capitis was above 200 µM throughout. The compound further had an inhibition in assay [2] of 40%.
For the compound `CCCC[C@H](CNC=O)C(=O)N[C@H](C(=O)N(C)C)C(C)(C)C`, the MIC with Escherichia coli [1] and with Staphylococcus capitis was above 200 µM each time.
As for `CCCC[C@H](CC(=O)O)C(=O)N[C@H](C(=O)N(C)C)C(C)(C)C`, the MIC in the assay with Escherichia coli [1] and with Staphylococcus capitis was above 200 µM throughout.
The compound `CCCC[C@H](CS)C(=O)N[C@@H](CCCCN)C(=O)Nc1ccc([N+](=O)[O-])cc1` had an MIC in the assay with Escherichia coli [3] of 75 µM (≈ 30.8 µg/mL).
`CCCC[C@H](CN(O)C(C)=O)C(=O)N[C@H](C(=O)N(C)C)C(C)(C)C`: the MIC against Escherichia coli [1] and in the assay on Staphylococcus capitis was above 200 µM throughout. In addition, the inhibition in assay [2] came out at 60%.
As to `CCCC[C@H](NCC(=O)O)C(=O)N[C@H](C(=O)N(C)C)C(C)(C)C`, the MIC against Escherichia coli [1] and with Staphylococcus capitis was above 200 µM throughout.
Regarding `CCCC[C@H](CS)C(=O)N[C@H](C(=O)N(C)C)C(C)(C)C`, the MIC against Escherichia coli [1] and in the assay on Staphylococcus capitis was above 200 µM each time. The inhibition in assay [2] amounted to 10%.
In the case of `CCCC[C@H](OC(=O)NO)C(=O)N[C@H](C(=O)N(C)C)C(C)(C)C`, the MIC in the assay with Escherichia coli [1] and against Staphylococcus capitis was above 200 µM in each case. In addition, the inhibition in assay [2] worked out at 20%.
`CCCCC(CP(=O)(O)O)C(=O)N[C@H](C(=O)N(C)C)C(C)(C)C` (stereo partly specified): the MIC with Escherichia coli [1] and in the assay on Staphylococcus capitis was above 200 µM each time.
As for `CCCC[C@H](CC(=O)NN)C(=O)N[C@H](C(=O)N(C)C)C(C)(C)C`, the MIC in the assay on Escherichia coli [1] and in the assay with Staphylococcus capitis was above 200 µM throughout.

For the origin of these results see ChEMBL document CHEMBL1135853, “Structure-activity relationships of the peptide deformylase inhibitor BB-3497: modification of the metal binding group” (Bioorg Med Chem Lett, 2002).
